Source: patent US8741967B2, “Use of unsaturated sphingosine compounds as chemotherapeutic agents for the treatment of cancer” (Children's Hospital & Research Center at Oakland, priority 2007, dated 2014)

Columns and labels:
[1] = tested on: HT29 cells; assay: Uptake and metabolism in HT29 colon cancer cells (LC-MS); assay type: in vitro ADME, human; details: for clearance / metabolism in cells after lipid removal: then incubated without lipids for up to 6 hours
Description: In this example, the uptake and metabolism of C14 sphingadienes was compared with that of synthetic C17 sphingosine (as a substitute for endogenous C18 sphingosine which is already present in cells) and C14 sphingosine (to assess the importance of the second double bond) by HT29 colon cancer cells. Toward that end, cells were incubated with 10 μM sphingadiene in serum-free media, followed by cell harvest at various time points, lipid extraction and analysis by mass spectrometry of SD, SD-phosphate, C14 sphingosine and corresponding S1Ps.
HT29 cells were incubated for 0.25 hours, 0.5 hours and 1 hour in media containing 10 μM C14-So (Δ4) (sphingosine) or C14Δ4:6Sd (see FIG. 9A). HT29 cells were incubated for 1 hour in media containing 10 μM C14-So or C14Δ4:6Sd. Media was then removed and cells were incubated without lipids for 1, 3 and 6 hours (FIG. 9B). At each time point, cells were harvested, lipids were extracted and the cellular contents of C14-So or C14Δ4:6Sd and the corresponding phosphorylated compounds were analyzed by LC-MS.

[2] = tested on: protein synthesis; assay: Translational activity of HT29 cell cytosol (DUAL-LUCIFERASE Reporter Assay System); assay type: cell-based, human; details: HT29, 10 μM, 6 hours
Description: HT29 cells were incubated for 6 hours with 10 μM C14Δ4:6Sd and the translational activity of the cell cytosol was measured with the DUAL-LUCIFERASE® Reporter Assay System (Promega, Madison, Wis.). […] In another experiment, HT29 cells were pretreated with inhibitors of p38 (SB20350), MEK (PD98059), PI3K (LY294002) and JNK (JNK inhibitor 2) and caspase 3 activity was determined following an 18 hour incubation with 10 μM C14Δ4:6Sd.

[3] = tested on: Akt; assay: Akt phosphorylation by western blotting in HT29 cells; assay type: cell-based, human; details: HT29, 10 μM, 0.5 to 24 hours
Description: (§1) To address the possibility that sphingadienes might promote cell death by inhibiting the PI3K/AKT pathway, the effect of sphingadienes on phosphorylation of AKT, PTEN, and the AKT substrate 4EBP, which is a regulator of protein translation, was evaluated using immunoblotting of whole cell extracts.
(§2) HT29 cells were incubated with 10 μM C14Δ4:6Sd for 0.5, 1, 3, 6 and 24 hours and the level of Akt and 4EBP phosphorylation was evaluated at each time point by western blotting. […] The ratios of phosphorylated Akt to total Akt and of phosphorylated 4EBP to total 4EBP, were quantified by densitometry using ImageJ software (ImageJ is a public domain Java image processing program inspired by NIH Image; available at rsbweb.nih.gov/ij/index.html) and are shown in FIG. 7A and FIG. 7B, respectively.
(§3) In an additional experiment, HT29 cells were treated for various time periods with 10 μM C14Δ4:6Sd or C18Δ4:8Sd and the level of phosphorylation of Akt and 4EBP was evaluated by western blotting at 0.5, 1.0 and 3.0 hours. The results confirmed that sphingadienes inhibited phosphorylation of Akt and 4EBP, even at 0.5 hours of exposure, thus inhibiting signaling through Akt and 4EBP.

[4] = tested on: ApcMin/+ mice; assay: Intestinal polyps in ApcMin/+ mice; assay type: in vivo; details: gavage 2.5 mg/day, day 10, versus vehicle control
Description: Murine experiments were performed to investigate the in vivo effect of C14Δ4:6Sd on the development of polyps in intestinal tissue using an established animal model system having an inherited genetic defect underlying spontaneous multiple intestinal neoplasia (Min) (Polakis, 1997 Biochim Biophys. Acta. 1332:F127; Kucherlapati et al., 2001 Semin. Canc. Biol. 11:219; Sansom et al., 2004 Genes Dev. 18:1385). Ten 12 week-old male ApcMin/+ mice (available from Jackson Laboratory, Bar Harbor, Me.) were administered by gavage 2.5 mg/day C14Δ4:6Sd and ten mice received vehicle control. Mice were euthanized by CO2 asphyxiation and intestinal tissues harvested at day 10. Gross polyps were counted and measured (diameter). […] Polyps were further analyzed for phosphorylated 4EBP by western blotting and it was confirmed that sphingadienes inhibited 4EBP phosphorylation in vivo.

[5] = tested on: SK; assay: Competition studies with sphingosine and SD on sphingosine kinase; details: not shown, listed as C14 SD
[6] = tested on: 4EBP; assay: 4EBP phosphorylation by western blotting in HT29 cells; assay type: cell-based, human; details: HT29, 10 μM, 0.5 to 24 hours
Description: as §1, §2, §3

CCCCCCC/C=C/C=C/C(O)C(N)CO (stereo not drawn) [C14Δ4:6Sd, 2-aminotetradeca-4,6-diene-1,3-diol]
conversion to the phosphorylated compound in intact cells ([1]; HT29, 10 μM, LC-MS, listed as C14 SDs): not converted to SD-phosphates | uptake rate compared with long chain sphingosine ([1]; HT29, 10 μM, not shown): faster | uptake rate by cells ([1]; HT29, 10 μM, serum-free media): taken up at equal rates | clearance / metabolism in cells after lipid removal ([1]; HT29, 10 μM): remains unaltered | clearance / metabolism in cells after lipid removal ([1]; HT29, 10 μM, listed as C14 SDs): remained in the cells for many hours | time remaining in cells after lipid removal ([1]; HT29, FIG. 3): 6 h | Luciferase activity (translational activity, protein synthesis) [2]: reduced by more than half | phosphorylation of Akt [3]: inhibited | size (diameter) of intestinal polyps [4]: reduced the size | number of intestinal polyps ([4]; p<0.0027): significantly reduced | inhibition of SK [5]: inhibit SK | phosphorylation of 4EBP [6]: inhibited
